# Data as given in US6982348B2, “Aminoethanol derivatives” (Takeda Pharmaceutical Company Limited, priority 2001, dated 2006).
row,Structure (SMILES),melting point [°C]
1,"CC(C)Oc1ccc([C@H](O)[C@@H](Cc2cccc(OC(F)(F)C(F)F)c2)NC(=O)c2cccc3c2C=CCCC3)cc1 (racemic) [Example 243, N-{(1RS,2SR)-2-hydroxy-2-(4-isopropoxyphenyl)-1-[3-(1,1,2,2-tetrafluoroethoxy)benzyl]ethyl}-6,7-dihydro-5H-benzo[a][7]annulene-1-carboxamide]",134 to 135
2,"O=C(CCc1ccccc1)N[C@H](Cc1ccc(C(F)(F)F)cc1)[C@@H](O)c1ccc(F)c(F)c1 (racemic) [Example 184, N-((1RS,2SR)-2-(3,4-difluorophenyl)-2-hydroxy-1-((4-(trifluoromethyl)phenyl)methyl)ethyl)-3-phenylpropanamide]",114 to 115
3,"O=C(N[C@H](Cc1cccc(OC(F)(F)C(F)F)c1)[C@@H](O)c1cccc(Cl)c1)c1cccc2c1C=CCCC2 (racemic) [Example 237, N-{(1RS,2SR)-2-(3-chlorophenyl)-2-hydroxy-1-[3-(1,1,2,2-tetrafluoroethoxy)benzyl]ethyl}-6,7-dihydro-5H-benzo[a][7]annulene-1-carboxamide]",160 to 161
4,"O=C(N[C@H](Cc1ccc(F)cc1)[C@@H](O)c1ccc(C(F)(F)F)cc1)C1CCCCC1 (racemic) [Example 214, N-((1RS,2SR)-1-((4-fluorophenyl)methyl)-2-hydroxy-2-(4-(trifluoromethyl)phenyl)ethyl)cyclohexanecarboxamide]",220 to 221
5,"O=C(N[C@H](Cc1ccc(C(F)(F)F)cc1)[C@@H](O)c1ccc(F)cc1)c1cccc2c1OCC2 (racemic) [Example 77, N-((1RS,2SR)-2-(4-fluorophenyl)-2-hydroxy-1-((4-(trifluoromethyl)phenyl)methyl)ethyl)-2,3-dihydro-1-benzofuran-7-carboxamide]",121 to 122
6,"O=C(N[C@H](Cc1ccc(C(F)(F)F)cc1)[C@@H](O)c1ccc(F)cc1)C(c1ccccc1)C1CCCC1 (mixture of isomers) [Example 110, 2-cyclopentyl-N-[(1RS,2SR)-2-(4-fluorophenyl)-2-hydroxy-1-[4-(trifluoromethyl)benzyl]ethyl]-2-phenylacetamide]",201 to 202
7,"CC(C)(C)c1cccc(C[C@@H](NC(=O)c2ccc(F)c3ccccc23)[C@@H](O)c2cccc(Cl)c2)c1 (racemic) [Example 369, N-[(1RS,2SR)-1-[3-(tert-butyl)benzyl]-2-(3-chlorophenyl)-2-hydroxyethyl]-4-fluoro-1-naphthamide]",76 to 78
8,"COc1ccc(C[C@@H](NC(=O)c2cccc3ccccc23)[C@@H](O)c2ccc(F)cc2)cc1 (racemic) [Example 148, N-((1RS,2SR)-2-(4-fluorophenyl)-2-hydroxy-1-((4-(methyloxy)phenyl)methyl)ethyl)-1-naphthalenecarboxamide]",198 to 199
9,"CC(C)(C)C(F)(F)c1ccc(C[C@@H](NC(=O)c2cccc3c2C=CCCC3)[C@@H](O)c2cccc(Cl)c2)cc1 (racemic) [Example 380, N-{(1RS,2SR)-2-(3-chlorophenyl)-1-[4-(1,1-difluoro-2,2-dimethylpropyl)benzyl]-2-hydroxyethyl}-6,7-dihydro-5H-benzo[a]cycloheptene-1-carboxamide]",119 to 120
10,"O=C(N[C@H](Cc1ccc(C(F)(F)F)cc1)[C@@H](O)c1ccc(F)cc1)c1cccc2cccc(Br)c12 (racemic) [Example 87, 8-bromo-N-((1RS,2SR)-2-(4-fluorophenyl)-2-hydroxy-1-((4-(trifluoromethyl)phenyl)methyl)ethyl)-1-naphthalenecarboxamide]",191 to 192
11,"O=C(N[C@H](Cc1cccc(OC(F)(F)C(F)F)c1)[C@@H](O)c1ccc(Oc2ccccc2)cn1)c1cccc2c1C=CCCC2 (racemic) [Example 255, N-{(1RS,2RS)-2-hydroxy-2-(5-phenoxypyridin-2-yl)-1-[3-(1,1,2,2-tetrafluoroethoxy)benzyl]ethyl}-6,7-dihydro-5H-benzo[a][7]annulene-1-carboxamide]",147 to 148
